Source: patent US4508663A, “Process for preparing thiosulfenamide derivatives of N-phosphonomethylglycinonitriles” (Monsanto Company, priority 1983, dated 1985)

Columns and labels:
Test in all cases: post-emergence herbicidal activity, greenhouse
Type in all cases: in vivo
Yellow Nutsedge = settings: Table I, 4 WAT
Excerpt: (§1) A good grade of top soil is placed in aluminum pans having holes in the bottom and compacted to a depth of 0.95 to 1.27 cm. from the top of the pan. A predetermined number of seeds of each of several dicotyledonous and monocotyledonous annual plant species and/or vegetative propagules for the perennial plant species are placed on the soil and pressed into the soil surface. The seeds and/or vegetative propagules are covered with soil and leveled. The pans are then placed on a sand bench in the greenhouse and watered from below as needed. After the plants reach the desired age (two to three weeks), each pan except for the control pans is removed individually to a spraying chamber and sprayed by means of an atomizer operating at a positive air pressure of approximately 1.46 kg/cm^2 absolute. The atomizer contains 6 ml. of a solution or suspension of the chemical. In that 6 ml., is an amount of a cyclohexanone emulsifying agent mixture to give a spray solution or suspension which contains about 0.4% by weight of the emulsifier. The spray solution or suspension contains a sufficient amount of the candidate chemical in order to give application rates corresponding to those set forth in the tables. The spray solution is prepared by taking an aliquot of a 1.0% by weight stock solution or suspension of the candidate chemical in an organic solvent such as acetone or tetrahydrofuran or in water. The emulsifying agent employed is a mixture comprising 35 weight percent butylamine dodecylbenzene sulfonate and 65 weight percent of a tall oil ethylene oxide condensate having about 11 moles of ethylene oxide per mole of tall oil. The pans are returned to the greenhouse and watered as before and the injury to the plants as compared to the control is observed at approximately two and four weeks as indicated in the tables under WAT and the results recorded. In some instances, the two-week observations are omitted.
(§2) The post-emergence herbicidal activity index used in Table I is as follows: […]

Smartweed = tested on: Smartweed
Excerpt: as §1, §2

Velvetleaf = tested on: Velvetleaf
Excerpt: as §1, §2

Sorghum = settings: Table II, 2 WAT
Excerpt: as §1, §2

Johnsongrass = settings: Table I, 4 WAT
Excerpt: as §1, §2

Sugar Beet = settings: Table II, 2 WAT
Excerpt: as §1, §2

Soybean = settings: Table II, 2 WAT
Excerpt: as §1, §2

Crabgrass = settings: Table II, 2 WAT
Excerpt: as §1, §2

Barnyardgrass = tested on: Barnyardgrass
Excerpt: as §1, §2

Cocklebur = tested on: Cocklebur
Excerpt: as §1, §2

Quackgrass = settings: Table I, 4 WAT
Excerpt: as §1, §2

Rice = settings: Table II, 2 WAT
Excerpt: as §1, §2

Downy Brome = tested on: Downy Brome
Excerpt: as §1, §2

Hemp Sesbania = settings: Table II, 2 WAT
Excerpt: as §1, §2

Panicum Spp = settings: Table II, 2 WAT
Excerpt: as §1, §2

Wild Buckwheat = settings: Table II, 2 WAT
Excerpt: as §1, §2

Wheat = settings: Table II, 2 WAT
Excerpt: as §1, §2

Lambsquarters = tested on: Lambsquarters
Excerpt: as §1, §2

Morningglory = tested on: Morningglory
Excerpt: as §1, §2

N#CCN(CP(=O)(Oc1ccccc1)Oc1ccccc1)SSc1ccc(Cl)cc1 [XI]
post-emergence herbicidal activity index (Yellow Nutsedge; 5.6 kg/h): 0 (0-24% control)
post-emergence herbicidal activity index (Yellow Nutsedge; 11.2 kg/h): 1 (25-49% control)
post-emergence herbicidal activity index (Smartweed; Table I, 4 WAT, 5.6 kg/h): 0 (0-24% control)
post-emergence herbicidal activity index (Smartweed; Table I, 4 WAT, 11.2 kg/h): 2 (50-74% control)
post-emergence herbicidal activity index (Smartweed; Table II, 2 WAT, 1.12 kg/h): 0 (0-24% control)
post-emergence herbicidal activity index (Smartweed; Table II, 2 WAT, 5.6 kg/h): 1 (25-49% control)
post-emergence herbicidal activity index (Velvetleaf; Table I, 4 WAT, 5.6 kg/h): 0 (0-24% control)
post-emergence herbicidal activity index (Velvetleaf; Table I, 4 WAT, 11.2 kg/h): 2 (50-74% control)
post-emergence herbicidal activity index (Velvetleaf; Table II, 2 WAT, 1.12 kg/h): 0 (0-24% control)
post-emergence herbicidal activity index (Velvetleaf; Table II, 2 WAT, 5.6 kg/h): 3 (75-99% control)
post-emergence herbicidal activity index (Sorghum; 1.12 kg/h): 0 (0-24% control)
post-emergence herbicidal activity index (Sorghum; 5.6 kg/h): 1 (25-49% control)
post-emergence herbicidal activity index (Johnsongrass; 5.6 kg/h): 0 (0-24% control)
post-emergence herbicidal activity index (Johnsongrass; 11.2 kg/h): 2 (50-74% control)
post-emergence herbicidal activity index (Sugar Beet; 1.12 kg/h): 1 (25-49% control)
post-emergence herbicidal activity index (Sugar Beet; 5.6 kg/h): 3 (75-99% control)
post-emergence herbicidal activity index (Soybean; 1.12 kg/h): 0 (0-24% control)
post-emergence herbicidal activity index (Soybean; 5.6 kg/h): 1 (25-49% control)
post-emergence herbicidal activity index (Crabgrass; 1.12 kg/h): 0 (0-24% control)
post-emergence herbicidal activity index (Crabgrass; 5.6 kg/h): 3 (75-99% control)
post-emergence herbicidal activity index (Barnyardgrass; Table I, 4 WAT, 5.6 kg/h): 0 (0-24% control)
post-emergence herbicidal activity index (Barnyardgrass; Table I, 4 WAT, 11.2 kg/h): 3 (75-99% control)
post-emergence herbicidal activity index (Barnyardgrass; Table II, 2 WAT, 1.12 kg/h): 0 (0-24% control)
post-emergence herbicidal activity index (Barnyardgrass; Table II, 2 WAT, 5.6 kg/h): 1 (25-49% control)
post-emergence herbicidal activity index (Cocklebur; Table I, 4 WAT, 5.6 kg/h): 0 (0-24% control)
post-emergence herbicidal activity index (Cocklebur; Table I, 4 WAT, 11.2 kg/h): 3 (75-99% control)
post-emergence herbicidal activity index (Cocklebur; Table II, 2 WAT, 1.12 kg/h): 0 (0-24% control)
post-emergence herbicidal activity index (Cocklebur; Table II, 2 WAT, 5.6 kg/h): 3 (75-99% control)
post-emergence herbicidal activity index (Quackgrass; 5.6 kg/h): 0 (0-24% control)
post-emergence herbicidal activity index (Quackgrass; 11.2 kg/h): 2 (50-74% control)
post-emergence herbicidal activity index (Rice; 1.12 kg/h): 0 (0-24% control)
post-emergence herbicidal activity index (Rice; 5.6 kg/h): 1 (25-49% control)
post-emergence herbicidal activity index (Downy Brome; Table I, 4 WAT, 5.6 kg/h): 0 (0-24% control)
post-emergence herbicidal activity index (Downy Brome; Table I, 4 WAT, 11.2 kg/h): 1 (25-49% control)
post-emergence herbicidal activity index (Downy Brome; Table II, 2 WAT, 1.12 kg/h): 0 (0-24% control)
post-emergence herbicidal activity index (Downy Brome; Table II, 2 WAT, 5.6 kg/h): 1 (25-49% control)
post-emergence herbicidal activity index (Hemp Sesbania; 1.12 kg/h): 0 (0-24% control)
post-emergence herbicidal activity index (Hemp Sesbania; 5.6 kg/h): 1 (25-49% control)
post-emergence herbicidal activity index (Panicum Spp; 1.12 kg/h): 0 (0-24% control)
post-emergence herbicidal activity index (Panicum Spp; 5.6 kg/h): 1 (25-49% control)
post-emergence herbicidal activity index (Wild Buckwheat; 1.12 kg/h): 0 (0-24% control)
post-emergence herbicidal activity index (Wild Buckwheat; 5.6 kg/h): 3 (75-99% control)
post-emergence herbicidal activity index (Wheat; 1.12 kg/h): 0 (0-24% control)
post-emergence herbicidal activity index (Wheat; 5.6 kg/h): 2 (50-74% control)
post-emergence herbicidal activity index (Lambsquarters; Table I, 4 WAT, 5.6 kg/h): 0 (0-24% control)
post-emergence herbicidal activity index (Lambsquarters; Table I, 4 WAT, 11.2 kg/h): 4 (100% control)
post-emergence herbicidal activity index (Lambsquarters; Table II, 2 WAT, 1.12 kg/h): 0 (0-24% control)
post-emergence herbicidal activity index (Lambsquarters; Table II, 2 WAT, 5.6 kg/h): 3 (75-99% control)
post-emergence herbicidal activity index (Morningglory; Table I, 4 WAT, 5.6 kg/h): 0 (0-24% control)
post-emergence herbicidal activity index (Morningglory; Table I, 4 WAT, 11.2 kg/h): 1 (25-49% control)
post-emergence herbicidal activity index (Morningglory; Table II, 2 WAT, 1.12 kg/h): 0 (0-24% control)
post-emergence herbicidal activity index (Morningglory; Table II, 2 WAT, 5.6 kg/h): 1 (25-49% control)
